In series [1] the test system is Salmonella enterica food isolate. Description: Broth microdilution assay (MIC). The note with it: 18 h, S. enterica food isolate. In kind it is cell-based. The procedure:
(§1) The antibacterial activity of all compounds was evaluated by determining the minimum inhibitory concentration (MIC), which is defined as the lowest concentration of the compound at which no visible bacterial growth is detected. The compounds were tested against representatives of Gram-positive and Gram-negative strains, including the ESKAPE bacterium Staphylococcus aureus ATCC25923 and the clinical isolate of methicillin-resistant S. aureus (MRSA), which are known for their pathogenicity.
(§2) The collection included five Gram-positive strains, including Staphylococcus aureus (ATCC 25923 and a methicillin-resistant Staphylococcus aureus clinical strain MRSA), Bacillus cereus ATCC 14579, Enterococcus faecalis ATCC 29212, and Listeria monocytogenes ATCC 7644; and three Gram-negative strains: Escherichia coli ATCC 25922, Pseudomonas aeruginosa ATCC 27853 and the food isolate Salmonella enterica. All microbial strains were maintained at ™80 °C for long-term storage and subcultured on Mueller-Hinton (MH) agar (Biolife, Italy) prior to broth microdilution experiments. The MH plates were stored at +4 °C for no longer than one month.
(§3) Antibacterial activity was evaluated using the Broth Microdilution Assay according to the Clinical and Laboratory Standard Institute’s Methods for Dilution Antimicrobial Susceptibility Test for Bacteria That Grow Aerobically; Approved Standard-Tenth Edition.
(§4) The stock solution of QAS (10 mg/mL) was prepared in 4% DMSO. Then, 100 µL of the tested QAS was added to the first well of the microtiter plate. Twofold serial dilutions in Muller-Hinton broth were performed over the entire plate at a concentration range of 5 mg/mL to 5 µg/mL. To each well, 50 µL of mid-exponentially grown inoculum containing 10^5 CFU/mL in Mueller-Hinton broth was added and incubated at 37 °C for 18 hours. The minimum inhibitory concentration (MIC) was determined as the lowest concentration at which no visually detectable bacterial growth occurred in the wells.

Series [2] deals with methicillin-resistant Staphylococcus aureus clinical strain MRSA. In words: Broth microdilution assay (MIC). Type of series: cell-based. The procedure:
as §1, §2, §3, §4
Background: In broth dilution the organism is exposed to a series of concentrations in liquid medium.

Series [3] has as its system Bacillus cereus ATCC14579. Description: Broth microdilution assay (MIC). Type of series: cell-based. How it is done:
as §1
(§5) All microbial strains were maintained at ™80 °C for long-term storage and subcultured on Mueller-Hinton (MH) agar (Biolife, Italy) prior to broth microdilution experiments. The MH plates were stored at +4 °C for no longer than one month.
as §3
(§6) The stock solution of QAS (10 mg/mL) was prepared in 4% DMSO. Then, 100 µL of the tested QAS was added to the first well of the microtiter plate. Twofold serial dilutions in Muller-Hinton broth were performed over the entire plate at a concentration range of 5 mg/mL to 5 µg/mL. […] The minimum inhibitory concentration (MIC) was determined as the lowest concentration at which no visually detectable bacterial growth occurred in the wells.

Series [4] deals with Enterococcus faecalis ATCC29212. Description: Broth microdilution assay (MIC). In kind it is cell-based. The procedure:
as §1, §5, §3, §6

Series [5] concerns Escherichia coli ATCC25922. Description: Broth microdilution assay (MIC). Type of series: cell-based. The note with it: ATCC25922, 18 h. The procedure:
as §1, §5, §3, §6

Series [6] has as its system Listeria monocytogenes ATCC7644. Description: Broth microdilution assay (MIC). In kind it is cell-based. How it is done:
as §1, §5, §3, §6

Series [7] concerns Pseudomonas aeruginosa ATCC27853. In words: Broth microdilution assay (MIC). In kind it is cell-based. How it is done:
as §1, §5, §3, §6

For series [8], the system named is Staphylococcus aureus ATCC25923. Description: Broth microdilution assay (MIC). The conditions noted are these: for MIC: Staphylococcus aureus. Type of series: cell-based. The procedure:
as §1, §5, §3, §6

A further series has as its system HaCaT cells. Description: Cytotoxicity (MTS assay). The note with it: 48 h. How it is done: (§7) Keratinocytes are the primary cell type found in the outermost layer of the skin. Therefore, HaCaT cells were used as a model for human skin, and RPE1 are retinal pigment epithelial cells, thus a model for epithelial cell type.
(§8) Cells were grown in DMEM media in a humidified environment with 5% CO2 and 37 °C. To determine cytotoxicity, a twofold serial dilution of a tested compound starting at 5 mg/mL was prepared in a 96-well plate. Five thousand cells were pipetted into each well, and the cells were grown for an additional 48 h. Then, the reagent MTS (20 μL) was added to the cells according to the manufacturer’s instructions (CellTiter 96® Aqueous One Solution Cell Proliferation Assay, Promega). After 3 h of incubation, the absorbance was measured at 490 nm. IC50 values were determined by plotting compound concentration against absorbance using GraFit6 software.

A further series concerns RPE1 cells. Description: Cytotoxicity (MTS assay). The note with it: 48 h. The procedure: as §7, §8
For series [9], the system named is Tobacco mosaic virus (TMV). In words: Antiphytoviral activity assay (local lesions on host plant leaves). The conditions noted are these: Datura stramonium leaves. Type of series: in vivo, Tobacco mosaic virus on Datura stramonium. The procedure:
Leaves of Nicotiana tabacum L. cv. Samsun plants systemically infected with Tobacco mosaic virus (TMV) were ground in 0.06 mol/L phosphate buffer, pH 7.0 (1:1, w/v) to prepare virus inocula. […] Leaves of the local host Datura stramonium L. were dusted with silicon carbide (Sigma-Aldrich, St. Louis, MO, USA) before virus inoculation, and the inoculum was diluted with inoculation buffer to obtain 5–20 lesions per inoculated leaf. Experiments were performed when the experimental plants reached the 4–6 leaf stage.
The tested QAS (10 mg/mL) were dissolved in 4% DMSO and added to the virus inocula at a final concentration of 100 µg/mL. DMSO was added to the control virus inocula at the same concentration. The control and treated plants were then rubbed with the prepared inocula and the antiviral activity of the tested compounds was evaluated by the percentage inhibition of the number of local lesions on the leaves of the treated and control plants as described in [40]. The obtained data were analyzed in Excel (Microsoft Office) and significant differences were determined by t-test.

[10] abbreviates: compound 100 µg/mL inoculated simultaneously with TMV.

Where “and” joins values, the source holds several entries; their conditions need not be identical. Identical values can stand only once. Like-named read-outs stand apart in the source and are kept apart here. Where only a bound is given, the exact number is not on record here.

Usually MIC stands for the lowest concentration that inhibits growth of the organism. By melting point is commonly meant the temperature, or range, at which the solid turns liquid.

For `CCCCCCCCCCCCCCCC[n+]1ccc(C=NO)cc1` [Py-C16], the MIC in [1] is 5000 µg/mL and 11700 µM; in [2] (MRSA), 160 µg/mL; in [2] (MRSA, 18 h), 160 µg/mL; in [3] (ATCC14579, 18 h) it was 160 µg/mL; in series [4] (ATCC29212, 18 h), 2500 µg/mL and 5850 µM; in series [5], 160 µg/mL and 370 µM. The MIC in series [6] (ATCC7644, 18 h) was 1250 µg/mL and 2920 µM; in series [7] (ATCC27853, 18 h), 2500 µg/mL and 5850 µM; in series [8] (ATCC25923, 18 h) it was 40 µg/mL. In addition, the “fold higher MIC than CPC” value in [8] (S. aureus ATCC25923) is 28 fold. Further, in series [8] (S. aureus ATCC25923), the “fold higher MIC than cefotaxime” value was found to be 10 fold. The Cytotoxicity in words result in the series on HaCaT cells and with RPE1 cells was “moderately toxic” throughout.

In the case of `ON=Cc1cc[n+](CCCCCCCCCCCCBr)cc1.[Br-]` [Py-C12Br, N-(12-bromododecyl)-4-hydroxyiminomethylpyridinium bromide], the melting point is 109 to 110 °C. Besides, the MIC in [1] was 2500 µg/mL and 5550 µM. The compound further came in with an MIC in series [2] (MRSA, 18 h) of 310 µg/mL. Inhibition of growth in [3] (ATCC14579, 18 h) (MIC) required 630 µg/mL. Besides, in [4] (ATCC29212, 18 h), the MIC is 1250 µg/mL and 2780 µM. In addition, in series [5] (E. coli ATCC25922), the MIC is 630 µg/mL and 1400 µM. The minimum inhibitory concentration (MIC) in [6] (ATCC7644, 18 h) was 1250 µg/mL and 2780 µM. For the same compound, the MIC in series [7] (ATCC27853, 18 h) was 2500 µg/mL and 5550 µM. Also, the minimal inhibitory concentration (MIC) in series [8] (ATCC25923, 18 h) turned out to be 160 µg/mL. For the same compound, the “Number of local lesions (LLN ± SD)” value in series [9] (setting [10]) is on record as 6.3±1.6. Also, the “Percentage of inhibition of local lesions” value in [9] (compound 100 µg/mL inoculated simultaneously with TMV, vs control plants) was determined as 57.7%.

As for `CCCCCCCCCCCCCC[n+]1ccc(C=NO)cc1` [Py-C14], the MIC in series [1] was 2500 µg/mL and 6260 µM; in series [2] (MRSA, 18 h) it was 160 µg/mL; in series [3] (ATCC14579, 18 h), 1250 µg/mL; in series [4] (ATCC29212, 18 h), 310 µg/mL and 780 µM; in series [5], 630 µg/mL and 1580 µM; in [6] (ATCC7644, 18 h) it was 310 µg/mL and 780 µM. The MIC in series [7] (ATCC27853, 18 h) was 2500 µg/mL and 6260 µM; in series [8] (ATCC25923, 18 h), 80 µg/mL. Further, the “fold higher LLN than the control BAB” value in series [9] (100 µg/mL) came out at 5 fold. Further, in series [9] (setting [10]), the “Number of local lesions (LLN ± SD)” value is 1.0±0.4. The Cytotoxicity in words result with HaCaT cells and in the series on RPE1 cells was “moderately toxic” throughout.

As for `ON=Cc1ccncc1` [Py-4-ox, pyridine-4-aldoxime, reference compound], the MIC was 5000 µg/mL and 40900 µM in [1]; > 5000 µg/mL in [2] (18 h, S. aureus clinical/MRSA, read-out: MIC); > 5000 µg/mL in series [3] (18 h, B. cereus ATCC14579, read-out: MIC); 5000 µg/mL and 40900 µM in series [4] (18 h, E. faecalis ATCC29212, read-out: MIC); > 5000 µg/mL and > 40900 µM in [5] (E. coli ATCC25922, read-out: MIC); > 5000 µg/mL and > 40900 µM in series [6] (18 h, L. monocytogenes ATCC7644, read-out: MIC). For the same compound, the MIC in series [7] (18 h, P. aeruginosa ATCC27853, read-out: MIC) is > 5000 µg/mL and > 40900 µM; in series [8] (S. aureus ATCC25923, 18 h, 37 °C, read-out: MIC), > 5000 µg/mL. Moreover, the Cytotoxicity in words result in the series on HaCaT cells and in the series with RPE1 cells was “moderately toxic” throughout.

Consider `ON=Cc1cc[n+](CCCCCCCCBr)cc1.[Br-]` [Py-C8Br, N-(8-bromooctyl)-4-hydroxyiminomethylpyridinium bromide], for which the melting point lay in the range of 100 to 101 °C. Besides, the MIC in series [1] is > 5000 µg/mL and > 12700 µM. The compound further returned an MIC in series [2] (MRSA, 18 h) of 2500 µg/mL. This compound registered an MIC in series [3] (ATCC14579, 18 h) of 2500 µg/mL. For the same compound, the MIC in series [4] (ATCC29212, 18 h) is 2500 µg/mL and 6340 µM. For the same compound, the MIC in [5] (E. coli ATCC25922) is 1250 µg/mL and 3170 µM. In series [6] (ATCC7644, 18 h), the MIC is 1250 µg/mL and 3170 µM. Also, in series [7] (ATCC27853, 18 h), the MIC is > 5000 µg/mL and > 12700 µM. Besides, the MIC in series [8] (ATCC25923, 18 h) was determined as 5000 µg/mL.

Source of the values: paper PMC9315884, “New Membrane Active Antibacterial and Antiviral Amphiphiles Derived from Heterocyclic Backbone of Pyridinium-4-Aldoxime” (Pharmaceuticals, 2022).
